Test results: patent US20020137929A1, “1 - (3-heterocyclylphenyl) isothiourea, -isourea, -guanidine and -amidine herbicidal agents” (Intellectual Property Department, BASF Aktiengesellschaft, priority 1998, published 2002)

Columns and labels:
[1] = tested on: CYPSE (Flatsedge); assay: Postemergence weed control under flooded paddy conditions; assay type: in vivo, Cyperus serotinus; conditions: postemergence weeds, 3-4 weeks after treatment
Description: Results of herbicide evaluation are expressed on a rating scale (0-9). The scale is based upon a visual observation of plant stand, vigor, malformation, size, chlorosis and overall plant appearance as compared with a control.
Plastic containers containing weeds which are 3 to 5 cm tall and rice seedlings at the 1.5 to 2.5 leaf stage are flooded with water. The water is maintained at 1.5 to 3 cm above the soil surface for the duration of the experiment. Test compounds are applied as aqueous/ acetone mixtures 50/50 v/v directly into the flood water to provide the equivalent of about 0.0313 to 0.500 kg/ha of active ingredient. The treated containers are placed on greenhouse benches and cared for in accordance with conventional greenhouse procedures. Three to four weeks after treatment, the test is terminated and each container is examined and herbicidal effect rated according to the rating system provided in Example 37. The compounds evaluated are reported by compound number given in Example 37.

[2] = tested on: CHEAL (Lambsquarters, Common); assay: Postemergence herbicidal evaluation; assay type: in vivo, Chenopodium album; conditions: postemergence
In short: (§1)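 Visual 0–9 rating versus control (stand, vigor, malformation, size, chlorosis, overall appearance), taken four to five weeks post-spray. Two-week-old seedlings received roughly 0.0156–0.500 kg/ha active in acetone/water (50/50) with 0.5% TWEEN 20 via nozzle at 40 psi.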

[3] = tested on: ECHCG (Barnyardgrass); assay: Postemergence herbicidal evaluation; assay type: in vivo, Echinochloa crus-galli; conditions: postemergence
In short: as §1

[4] = tested on: CHEAL (Lambsquarters, Common); assay: Preemergence herbicidal evaluation; assay type: in vivo, Chenopodium album; conditions: rated 4-5 weeks after treatment
In short: (§2)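 Preemergence soil application of compound, sprayed in aqueous acetone at rates equivalent to about 0.0156 to 0.500 kg per hectare onto freshly sown cups. Plant response was judged by eye on a 0-9 scale four to five weeks later.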

[5] = tested on: AMBEL (Ragweed, Common); assay: Postemergence herbicidal evaluation; assay type: in vivo, Ambrosia artemisifolia; conditions: postemergence
In short: as §1

[6] = tested on: CYPSE (Flatsedge); assay: Preemergence weed control under flooded paddy conditions; assay type: in vivo, Cyperus serotinus; conditions: rated 3-4 weeks after treatment
In short: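 Using flooded silt loam (water 1.5 to 3 cm deep), seeds sown in the top 0.5 cm were exposed preemergence to compound pipetted into the flood at about 0.0313 to 0.500 kg/ha. Effects were scored 0-9 by eye three to four weeks later.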

[7] = tested on: ZEAMX (Corn, Field); assay: Postemergence herbicidal evaluation; assay type: in vivo, Zea mays; conditions: postemergence
In short: as §1

[8] = tested on: CYPIR (Rice Flatsedge); assay: Postemergence weed control under flooded paddy conditions; assay type: in vivo, Cyperus iria; conditions: postemergence weeds, 3-4 weeks after treatment
In short: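 Containers holding 3–5 cm weeds and rice at 1.5–2.5 leaves are flooded to 1.5–3 cm above soil. Compound in 50/50 v/v aqueous/acetone is then added directly to the water, about 0.0313–0.500 kg/ha. Plants are kept in the greenhouse and rated 0–9 visually at 3–4 weeks.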

[9] = tested on: CASOB (Sicklepod); assay: Preemergence herbicidal evaluation; assay type: in vivo, Cassia obtusifolia; conditions: rated 4-5 weeks after treatment
In short: as §2

[10] = tested on: ABUTH (Velvetleaf); assay: Postemergence herbicidal evaluation; assay type: in vivo, Abutilon theophrasti; conditions: postemergence
In short: as §1

[11] = tested on: AMBEL (Ragweed, Common); assay: Preemergence herbicidal evaluation; assay type: in vivo, Ambrosia artemisifolia; conditions: rated 4-5 weeks after treatment
In short: as §2

[12] = tested on: ORYSAT (Rice, Tebonnet); assay: Postemergence herbicidal evaluation; assay type: in vivo, Oryza sativa, (L.) Tebonnet; conditions: postemergence
In short: as §1

In the case of `CCC1SC(=Nc2cc(N3C(=O)C4=C(CCCC4)C3=O)c(F)cc2Cl)N(C)C1=O` (centres unmarked) [Compound 6, N-{4-chloro-5-[(5-ethyl-3-methyl-4-oxo-2-thiazolidinylidene)amino]-2-fluorophenyl}-1-cyclohexene-1,2-dicarboximide], the “Herbicidal rating CYPSE” value ([1]; rate 0.0313 kg/ha) is reported as 0.0, the “Herbicidal rating CYPSE” value ([1]; rate 0.0625 kg/ha) is reported as 0.0 and the “Herbicidal rating CYPSE” value ([1]; rate 0.1250 kg/ha) is reported as 0.0. The “Herbicidal rating CYPSE” value ([1]; rate 0.2500 kg/ha) was 0.0, the “Herbicidal rating CYPSE” value ([1]; rate 0.5000 kg/ha) was 0.0 and the CHEAL herbicidal rating ([2]; rate 0.0157 kg/ha) was 0.0. It also gave a CHEAL herbicidal rating ([2]; rate 0.0313 kg/ha) of 0.0, a CHEAL herbicidal rating ([2]; rate 0.0625 kg/ha) of 2.0 and a CHEAL herbicidal rating ([2]; rate 0.2500 kg/ha) of 6.0. For the same molecule, the CHEAL herbicidal rating ([2]; rate 0.5000 kg/ha) was 9.0, the ECHCG herbicidal rating ([3]; rate 0.0157 kg/ha) was 0.0 and the ECHCG herbicidal rating ([3]; rate 0.0313 kg/ha) was 0.0. It also gave an ECHCG herbicidal rating ([3]; rate 0.0625 kg/ha) of 0.0, an ECHCG herbicidal rating ([3]; rate 0.1250 kg/ha) of 0.0 and an ECHCG herbicidal rating ([3]; rate 0.2500 kg/ha) of 1.0. For the same molecule, the ECHCG herbicidal rating ([3]; rate 0.5000 kg/ha) was 2.0, the “CHEAL preemergence herbicidal rating” value ([4]; rate 0.1250 kg/ha) was 2.0 and the “CHEAL preemergence herbicidal rating” value ([4]; rate 0.2500 kg/ha) was 4.0. The “CHEAL preemergence herbicidal rating” value ([4]; rate 0.5000 kg/ha) was 9.0, the AMBEL herbicidal rating ([5]; rate 0.0157 kg/ha) was 2.0 and the AMBEL herbicidal rating ([5]; rate 0.0313 kg/ha) was 2.0. The AMBEL herbicidal rating ([5]; rate 0.0625 kg/ha) was 2.0, the AMBEL herbicidal rating ([5]; rate 0.1250 kg/ha) was 4.0 and the AMBEL herbicidal rating ([5]; rate 0.2500 kg/ha) was 4.0. For the same molecule, the AMBEL herbicidal rating ([5]; rate 0.5000 kg/ha) was 4.0, the “Herbicidal rating CYPSE” value ([6]; 0.0313 kg/ha) was 0.0 and the “Herbicidal rating CYPSE” value ([6]; 0.0625 kg/ha) was 0.0. For the same molecule, the “Herbicidal rating CYPSE” value ([6]; 0.1250 kg/ha) was 0.0, the “Herbicidal rating CYPSE” value ([6]; 0.2500 kg/ha) was 0.0 and the “Herbicidal rating CYPSE” value ([6]; 0.5000 kg/ha) was 0.0. The ZEAMX herbicidal rating ([7]; rate 0.0157 kg/ha) was 3.0, the ZEAMX herbicidal rating ([7]; rate 0.0313 kg/ha) was 3.5 and the ZEAMX herbicidal rating ([7]; rate 0.0625 kg/ha) was 3.5. The ZEAMX herbicidal rating ([7]; rate 0.1250 kg/ha) was 3.5, the ZEAMX herbicidal rating ([7]; rate 0.2500 kg/ha) was 3.5 and the ZEAMX herbicidal rating ([7]; rate 0.5000 kg/ha) was 4.0. The “Herbicidal rating CYPIR” value ([8]; rate 0.0313 kg/ha) was 0.0, the “Herbicidal rating CYPIR” value ([8]; rate 0.0625 kg/ha) was 1.0 and the “Herbicidal rating CYPIR” value ([8]; rate 0.1250 kg/ha) was 2.0. For the same molecule, the “Herbicidal rating CYPIR” value ([8]; rate 0.2500 kg/ha) was 3.0, the “Herbicidal rating CYPIR” value ([8]; rate 0.5000 kg/ha) was 3.5 and the “CASOB preemergence herbicidal rating” value ([9]; rate 0.1250 kg/ha) was 0.0. For the same molecule, the “CASOB preemergence herbicidal rating” value ([9]; rate 0.2500 kg/ha) was 0.0, the “CASOB preemergence herbicidal rating” value ([9]; rate 0.5000 kg/ha) was 0.0 and the ABUTH herbicidal rating ([10]; rate 0.0157 kg/ha) was 7.0. For the same molecule, the ABUTH herbicidal rating ([10]; rate 0.0313 kg/ha) was 8.0, the ABUTH herbicidal rating ([10]; rate 0.0625 kg/ha) was 8.0 and the ABUTH herbicidal rating ([10]; rate 0.1250 kg/ha) was 9.0. For the same molecule, the ABUTH herbicidal rating ([10]; rate 0.2500 kg/ha) was 9.0, the ABUTH herbicidal rating ([10]; rate 0.5000 kg/ha) was 9.0 and the “AMBEL preemergence herbicidal rating” value ([11]; rate 0.1250 kg/ha) was 0.0. The “AMBEL preemergence herbicidal rating” value ([11]; rate 0.2500 kg/ha) was 0.0, the “AMBEL preemergence herbicidal rating” value ([11]; rate 0.5000 kg/ha) was 0.0 and the ORYSAT herbicidal rating ([12]; rate 0.0157 kg/ha) was 2.5. For the same molecule, the ORYSAT herbicidal rating ([12]; rate 0.0313 kg/ha) was 2.5, the ORYSAT herbicidal rating ([12]; rate 0.0625 kg/ha) was 2.5 and the ORYSAT herbicidal rating ([12]; rate 0.1250 kg/ha) was 2.5. The ORYSAT herbicidal rating ([12]; rate 0.2500 kg/ha) was 2.5 and the ORYSAT herbicidal rating ([12]; rate 0.5000 kg/ha) was 2.5.
